We go through two molecules from US6228889A, “Methods for treatment of conditions associated with lactosylceramide” (priority 1999, dated 2001).

One data set relates to restenosis. Particulars: patients, reported in literature; cited from earlier work.
The test system of data set [1] is PMN adhesion to unstimulated endothelial cells. Kind of data set: PMN-endothelial adhesion assay. In kind it is cell-based, human. The settings on record: PMNs incubated with LacCer, washed. The protocol: 12. PMN-Endothelial Adhesion Assay. PMNs were labeled fluorescently by incubation with 5 μmol/L Calcein-AM (Molecular Probes) in calcium-free PBS for 20 minutes at 37° C., washed and resuspended in Hanks' balanced salt solution (Gibco) containing 0.2% bovine serum albumin (BSA). These PMNs were then treated with LacCer (or vehicle, 0.05% DMSO), washed 3 times with PBS and then plated on the unstimulated ec monolayers, which had been grown to confluence in 24-well plates. The PMNs (600 μL of 2×10^6 /mL/well) then were incubated with the ecs for 30 minutes at 37° C. Non-adherent PMNs were then removed by gentle washing 3 times with PBS. The residual adherent PMNs (and ecs) were then lysed using 4mmol/L Zwittergent Calbiochem, La Jolla, Calif.) and the plates read on a fluorescence plate reader (Millipore) at EX 480 nm/EM 530 nm. The number of adherent PMNs were expressed as number of PMN/mm^2 ec monolayer, based on the mean fluorescent intensity of each PMN, as determined from a standard curve. 13. Additional Methods. LacCer, ceramide and […] (all from Sigma) were prepared as described in examples below, and used as putative agonists for the stimulation of PMN adhesion molecule expression, assayed by FACScan. […]

In another data set the test system is Mac-1 (CD11b/CD18). Particulars: pmns, 20 min, 0.1 µM.
The test system of data set [2] is neutrophil adhesion to Eahy 926 cells. Kind of data set: Confocal microscopic study of adhesion of human neutrophils to Eahy 926 endothelial cells. In kind it is cell-based. The settings on record: LacCer 5 μM, 4 hours.
The test system of the next data set is NF-kB. The data set can be described thus: NF-kB DNA binding assay (gel mobility shift) in Eahy 926 cells. The data set is classed as cell-based, human. Particulars: 5 μM LacCer.
Data set [3] relates to PMNs. The data set can be described thus: Superoxide generation in PMNs (lucigenin). The data set is classed as cell-based, human. Particulars: 100 nmol LacCer 20 minutes, no inhibitor, PMNs.
The subject of the next data set is L-selectin. Kind of data set: Flowcytometric analysis of L-selectin expression on PMNs. In kind it is cell-based, human. Particulars: 20 minutes. The protocol:
(§1) 10. Flowcytometric Analysis of the Expression of Adhesion Molecules on PMNs. Treated PMNs were rapidly cooled on ice, washed twice with cold washing buffer (PBS containing 0.1% BSA and 0.1% sodium azide), and then incubated with either monoclonal (m) anti-human (h) LFA-1 (CD11 a), m-anti-h Mac-1 (CD 11b), m-anti-h p150,95 (CD 11 c) or m-anti-h L-selectin (all from PharMingen., San Diego, Calif.), followed by FITC-conjugated m-anti-mouse IgG (American Qualex, San Clement, Calif.). The PMNs were gated by forward and side scattering for analysis by FACScan (Becton Dickinson, Cockeysville, Md.).

Data set [4] relates to PMNs. Kind of data set: ROM generation by PMNs (DCFH-DA). In kind it is cell-based, human. The settings on record: DCFH-DA, 45 minutes.
The next data set has as its system CD11a/CD18 (LFA-1). Kind of data set: Flowcytometric analysis of LFA-1 expression on PMNs. Particulars: 20 minutes. In kind it is cell-based, human. As for the experimental part: as §1
Data set [5] has as its system PMNs. The data set can be described thus: [3H] arachidonic acid release from labeled PMNs. The settings on record: 100 nmol/L LacCer, 30 minutes at 37° C. In kind it is cell-based, human.
The next data set has as its system VCAM-1. The data set can be described thus: VCAM-1 expression in Eahy 926. The settings on record: Eahy 926, LacCer. In kind it is cell-based, human.
The next data set has as its system NADPH oxidase. The settings on record: eahy 926 cell membranes, 5 min, 5 µM.
The subject of another data set is NADH oxidase. The data set can be described thus: NADH oxidase assay in membrane preparations of Eahy 926 cells. The data set is classed as biochemical, human. Particulars: 5 μM LacCer.
The test system of another data set is Eahy 926 cells. The data set can be described thus: Superoxide production by intact Eahy 926 (lucigenin chemiluminescence). The data set is classed as cell-based, human. Particulars: 5 μM LacCer after 5 minutes, intact Eahy 926 cells.
The next data set has as its system p150,95. Kind of data set: Flowcytometric analysis of p150,95 expression on PMNs. The data set is classed as cell-based, human. Particulars: 20 minutes. As for the experimental part:
as §1

A further data set concerns P-selectin. Kind of data set: P-selectin expression in Eahy 926. In kind it is cell-based, human. The settings on record: Eahy 926, LacCer.

In the case of `CC(C)(Sc1cc(C(C)(C)C)c(O)c(C(C)(C)C)c1)Sc1cc(C(C)(C)C)c(O)c(C(C)(C)C)c1` [probucol], in the data set with restenosis, the restenosis after angioplasty result is “reduce restenosis in some patients”.
For lactosylceramide [LacCer], in the data set on ICAM-1 (eahy 926 cells, 6 h, 5 µM), the “maximal expression of ICAM-1 as compared to control” value turned out to be 7 fold. In the data set with ICAM-1 (intact Eahy 926 cells, GSLs 10 μM, gangliosides up to 50 μM), the “stimulation of ICAM-1 expression by GSLs” value is “specifically stimulated”. Besides, the “PMN adhesion to unstimulated ec monolayers” value in data set [1] is reported as “increased”. Moreover, the “maximum stimulation of Mac-1 level compared to control” value with Mac-1 (CD11b/CD18) worked out at 2.5 fold. Also, the “adhesion of neutrophils to the endothelial cell monolayer” value in data set [2] is “markedly stimulated”. The “nuclear concentration of NF-kB” value with NF-kB is “time dependent increase”. The “superoxide levels compared with controls” value in the data set on PMNs [3] is on record as “about two”. The “level of L-selectin” value with L-selectin (LacCer higher concentrations) was “downregulated”; in the data set on L-selectin (LacCer lower concentrations), “did not change”. Also, the “ROM stimulation in PMNs” value in the data set on PMNs [4] is recorded as “positive, dose-dependent response”. The “level of CD11a/CD18 (LFA-1)” value is “downregulated” in the data set with CD11a/CD18 (LFA-1) (LacCer higher concentrations) and “did not change” in the data set with CD11a/CD18 (LFA-1) (LacCer lower concentrations). Besides, the “[3H] AA release from labeled PMNs” value in the data set with PMNs [5] is recorded as “increased”. Besides, the “expression of VCAM-1” value in the data set on VCAM-1 was “did not stimulate measurable expression”. The “stimulation of NADPH oxidase activity versus non-stimulated cell membrane preparations” value in the data set with NADPH oxidase is listed as “about 3 fold”. Moreover, in the data set on NADH oxidase, the “NADH oxidase activity in LacCer stimulated/non stimulated membrane preparations” value is on record as “remained unchanged”. Further, the “maximum generation of O2-” value in the data set on Eahy 926 cells turned out to be 2.7 nmol/mni/mg protein. Also, the entries for the “level of p150,95” value with p150,95 (LacCer 200 nmol/L) and in the data set on p150,95 (LacCer 50-100 nmol/L) were “decreased” and “increased”, respectively. The “expression of P-selectin” value in the data set with P-selectin is “did not stimulate measurable expression”.
